Data published in patent EP0021292A1, “Alkoxybenzylpyridopyrimidines, methods for their preparation and pharmaceutical formulations thereof” (THE WELLCOME FOUNDATION LIMITED, priority 1979, dated 1981).

Key:
[1] = biological target: T1, DHFR partially purified from rat liver (Rattus norvegicus, UniProt Q920D2); test: Inhibition of mammalian dihydrofolate reductase (DHFR); assay type: biochemical
T1 construct: DHFR partially purified from rat liver; from tissue; host or cells: rat liver
T1 sequence (Q920D2 1-187): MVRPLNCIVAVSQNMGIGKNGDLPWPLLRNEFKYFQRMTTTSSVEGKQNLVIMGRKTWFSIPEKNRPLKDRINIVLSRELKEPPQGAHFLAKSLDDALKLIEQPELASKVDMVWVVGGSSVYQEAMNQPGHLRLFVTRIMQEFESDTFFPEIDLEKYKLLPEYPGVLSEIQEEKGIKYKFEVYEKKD
Procedure: The inhibitory effect of the test compounds against DHFR partially purified from rat liver was determined.

[2] = biological target: Histamine N-methyl-transferase ( HMT ) (Homo sapiens, UniProt P50135); test: Inhibition of histamine N-methyltransferase (HMT); assay type: biochemical; details: read-out: % inhibition of HMT at 10^-5M
Procedure: EXAMPLE 4 Inhibition of Histamine N-methyl-transferase ( HMT ) by 2,4-Diamino-6-benzylpyrido(2,3-d)pyrimidine
The effect of the test compounds used in Example 3 against HMT was determined. An inhibition of less than 20% was considered acceptable and the lack of any effect on this enzyme is most desirable since any interference with histamine metabolism should be minimized.

[3] = test system: Leukemia P388 cells; test: Antileukemic effect on intraperitoneally inoculated P388 leukemia in mice; assay type: in vivo, CDF, Charles River female mice; details: for antileukemic activity: mice, 22, 33.5, 50 and 75 mg/kg, same schedule (twice daily for three days); for % increases in life span: mice
From the text: Leukemia P388 cells were inoculated intraperitoneally in CDF, Charles River female mice, each animal receiving 10^6 cells. On the second day after implantation with the leukemic cells, drug treatment was commenced and continued twice daily for three days.

[4] = Acute toxicity in mice (i.p.); details: mouse, in vivo, ip
Procedure: The acute toxicity of the title compounds was determined in mice ( i.p. ). The following results were obtained:-

[5] = test system: Solid Walker 256 tumors; test: Antitumor effect on subcutaneously implanted Walker 256 tumors in rats; assay type: in vivo; details: for mean tumor volume as % of the untreated group: after 17 days
Procedure: Solid Walker 256 tumors were implanted subcutaneously into three groups of rats. On the third day after implantation with the tumors drug treatment was commenced and continued for 5 successive days. One group of rats was treated with 2,4-diamino-6-(2,5-dimethoxybenzyl)-5-methylpyrido(2,3-d) pyrimidine at a dose of 25mg/kg q.i.d., a second group was treated with the same compound at 15 mg/kg b.i.d.; the third group were left untreated as controls.
In a second study tumors were implanted subcutaneously and drug treatment delayed until 10 days after implantation. Drug treatment consisted of 30 mg/kg q.i.d. on days 10-13 and 50 mg/kg on days 20, 24 and 28 after tumor implantation. Mean tumor volumes were measured during the course of this study. […] Twenty-three days after tumor implantation T/C was 0.03.

Chain of Histamine N-methyl-transferase ( HMT ) (P50135 whole entry, species assumed): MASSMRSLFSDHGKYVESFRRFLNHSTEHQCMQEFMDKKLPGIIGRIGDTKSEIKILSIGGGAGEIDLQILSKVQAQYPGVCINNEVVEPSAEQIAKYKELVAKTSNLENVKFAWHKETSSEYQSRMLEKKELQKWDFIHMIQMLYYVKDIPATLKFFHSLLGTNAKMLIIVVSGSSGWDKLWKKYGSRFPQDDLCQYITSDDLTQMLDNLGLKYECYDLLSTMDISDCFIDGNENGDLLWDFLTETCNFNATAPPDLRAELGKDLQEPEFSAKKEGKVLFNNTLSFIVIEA

Row | IC50 [1] [nM] | inhibition at 10 µM [2] [%] | Compound | other results
1 | 250 | 48 | Nc1nc(N)c2cc(Cc3ccccc3)cnc2n1 | –
2 | 7.8 | 19 | COc1ccc(Cc2cnc3nc(N)nc(N)c3c2C)cc1OC | –
3 | 27 | – | Cc1ccc(Cc2cnc3nc(N)nc(N)c3c2C)cc1 | –
4 | 50 | 18 | COc1ccccc1Cc1cnc2nc(N)nc(N)c2c1C | –
5 | 90 | 55 | CCc1ccc(Cc2cnc3nc(N)nc(N)c3c2C)cc1 | –
6 | – | – | COc1ccc(Cc2cnc3nc(N)nc(N)c3c2C)cc1 | antileukemic activity [3]: inactive at all doses
7 | – | – | COc1ccc(OC)c(Cc2cnc3nc(N)nc(N)c3c2C)c1 [2,4-Diamino-5-methyl-6-(2,5-dimethoxybenzyl)pyrido-(2,3-d)pyrimidine)] | LD50 [4]: ~500 mg/kg; mean tumor volume as % of the untreated group ([5]; 15 mg/kg b.i.d. for 5 successive days from third day after implantation): 10%; mean tumor volume as % of the untreated group ([5]; 25mg/kg q.i.d. for 5 successive days from third day after implantation): 29%; mean tumor volume during the period of observation ([5]; second study, 30 mg/kg q.i.d. on days 10-13 and 50 mg/kg on days 20, 24 and 28): decrease in mean tumor volume; T/C ([5]; second study, 30 mg/kg q.i.d. on days 10-13 and 50 mg/kg on days 20, 24 and 28, twenty-three days after tumor implantation): 0.03; % increases in life span ([3]; 22 mg/kg twice daily for three days from second day): 145%; % increases in life span ([3]; 33.5 mg/kg twice daily for three days from second day): 159%; % increases in life span ([3]; 50 mg/kg twice daily for three days from second day): 140%; % increases in life span ([3]; 75 mg/kg twice daily for three days from second day): 154%; drug-related toxicity ([3]; mice, 22, 33.5, 50 and 75 mg/kg twice daily for three days): no evidence of drug-related toxicity
8 | – | – | Cc1c(Cc2ccccc2Cl)cnc2nc(N)nc(N)c12 [2-chlorobenzyl compound] | antileukemic activity [3]: only marginal or slight activity
9 | 40 | 51 | Cc1c(Cc2ccccc2)cnc2nc(N)nc(N)c12 [-CH2 Ph] | –
10 | 16 | 59 | Cc1c(Cc2ccccc2Cl)cnc2nc(N)nc(N)c12 [the 1st table, row 5] | –
11 | 53 | 20 | COc1ccc(Cc2cnc3nc(N)nc(N)c3c2C)cc1 [the 1st table, row 8] | –

Row | Compound | IC50 [1] [nM] | inhibition at 10 µM [2] [%] | other results
12 | COc1ccc(OC)c(Cc2cnc3nc(N)nc(N)c3c2C)c1 [the 1st table, row 11] | – | 11 | –
